# Test: Inhibition of PDK1 (unknown origin)
row,SMILES,IC50 [nM]
1,NC(=O)Nc1ccc2c(c1)/C(=C/c1cc(-c3ccccn3)c[nH]1)C(=O)N2,8
2,"CN(C)CCNC(=O)c1cccc(-c2c[nH]c(/C=C3\C(=O)Nc4ccc(NC(N)=O)cc43)c2)c1 [3-(5-{[(3Z)-5-(carbamoylamino)-2-oxo-2,3-dihydro-1H-indol-3-ylidene]methyl}-1H-pyrrol-3-yl)-N-[2-(dimethylamino)ethyl]benzamide]",4
3,"C/C(=C1/C(=O)Nc2ccc(NC(N)=O)cc21)c1cc(CNC(=O)C2CCNCC2)c[nH]1 [N-[(5-{1-[(3Z)-5-(carbamoylamino)-2-oxo-2,3-dihydro-1H-indol-3-ylidene]ethyl}-1H-pyrrol-3-yl)methyl]piperidine-4-carboxamide]",6
4,"NC(=O)Nc1ccc2c(c1)/C(=C/c1ccc[nH]1)C(=O)N2 [indolinone based inhibitor, 3l]",20

# — BindingDB's records for PubMed 35033884 (Indian Institute of Technology (B.H.U.), 2022)
